In patent publication US4388234A, “Peptide isolation” (Hoffmann-La Roche Inc., priority 1981, dated 1983):

Test system: Candida albicans ATCC 10231
Assay: protective activity against opportunistic infections in immunosuppressed (5-FU pretreated) mice
Type: in vivo
Conditions: for Survivors at Day 15 / Survivors at Day 8: daily for eight days with 5-FU 25 mg/kg/day i.p., female ddY mice; for Survivors at Day 15: survivors/total 15 days after infection; for Survivors at Day 8: survivors/total eight days after infection
Procedure: The mice were then infected with Candida albicans ATCC 10231 (1×10^5cells or more) at 24 hours after the last treatment. One control group was administered 5-FU and saline solution and a second control group received neither 5-FU nor a thymic polypeptide prior to infection with Candida albicans.

For “Thymosin β4: peptide containing 44 amino acid residues, isolated from calf thymus; contained in APF”, the “protective effects against infection” value (compared with the polypeptides of Thymosin Fraction 5, thymosin α1 and thymosin β8, 5-FU immunosuppressed mice) was “of comparable similar magnitude”, the “Survivors at Day 15” value (dose 0.4 μg/kg/day) was 6/10 and the “Survivors at Day 8” value (dose 0.4 μg/kg/day) was 7/10. The “Survivors at Day 15” value (dose 4 μg/kg/day) was 5/10, the “Survivors at Day 8” value (dose 4 μg/kg/day) was 5/10 and the “Survivors at Day 15” value (dose 40 μg/kg/day) was 1/10. The “Survivors at Day 8” value (dose 40 μg/kg/day) was 1/10.
